Experimental data as given in US4496578A, “Antihypertensive sulfur-containing compounds” (Santen Pharmaceutical Co., Ltd., priority 1978, dated 1985).

What was measured:
[1] = system: angiotensin I-converting enzyme; assay: Percent inhibition of pressor response to angiotensin I in unanesthetized rats after oral administration (ACE inhibition in vivo); set-up: species or system Male Wistar strain rats
Protocol: As recently it has been clear that the compounds inhibiting angiotensin I-converting enzyme may be the curative potency against both renal hypertension and essential hypertension, the compounds of this invention are evaluated as antihypertensive agents by the following method.
Male Wistar strain rats weighing 200-300 g were used. Under ether anesthesia, polyethylene cannulae are inserted into carotid artery and jugular vein. The cannula to carotid artery is connected to an electric transducer, while the cannula to jugular vein is connected to an apparatus for continuous infusion. After the complete recovery from anesthesia, angiotensin I is infused intravenously in a dose of 300 ng/kg by the apparatus for continuous infusion, and the pressor response is recorded by polygraph (Nihon Koden, RM-150). The compounds of this invention suspended in 0.5% tragacanth solution are addministered orally in a dose of 0.3 ml per 100 g of body weight, and the pressor response to angiotensin I infused intravenously is measured with time.

[2] = system: male ddy-std. strain mice; assay: Acute toxicity test in mice; type: in vivo; settings: intraperitoneal, suspended in 0.5% tragacanth
Protocol: The male ddy-std. strain mice (4 weeks of age, weighing 19-21 g) were placed in a breeding room of constant temperature and humidity (23±1° C., 55±5%) and fed freely pellet diet (CE-2, Clea Japan, Inc.) and water ad. libitum for a week. The mice showing the normal growth were selected for the experiment.
Test compound is suspended in 0.5% tragacanth solution, and administered intraperitoneally in a dose of 0.5 ml per 20 g B.W.

[3] = 5 min after oral dose, mg/kg: 2 1.8, 2A 1.3, 2B 1.8, 22 1.5, 22A 1.0, 22B 1.4, 32 1.7, 32C 1.3, 64 1.9
[4] = 15 min after oral dose, mg/kg: 2 1.8, 2A 1.3, 2B 1.8, 22 1.5, 22A 1.0, 22B 1.4, 32 1.7, 32C 1.3, 64 1.9
[5] = 25 min after oral dose, mg/kg: 2 1.8, 2A 1.3, 2B 1.8, 22 1.5, 22A 1.0, 22B 1.4, 32 1.7, 32C 1.3, 64 1.9
[6] = 35 min after oral dose, mg/kg: 2 1.8, 2A 1.3, 2B 1.8, 22 1.5, 22A 1.0, 22B 1.4, 32 1.7, 32C 1.3, 64 1.9
[7] = 45 min after oral dose, mg/kg: 2 1.8, 2A 1.3, 2B 1.8, 22 1.5, 22A 1.0, 22B 1.4, 32 1.7, 32C 1.3, 64 1.9
[8] = 55 min after oral dose, mg/kg: 2 1.8, 2A 1.3, 2B 1.8, 22 1.5, 22A 1.0, 22B 1.4, 32 1.7, 32C 1.3, 64 1.9
[9] = 65 min after oral dose, mg/kg: 2 1.8, 2A 1.3, 2B 1.8, 22 1.5, 22A 1.0, 22B 1.4, 32 1.7, 32C 1.3, 64 1.9
[10] = 75 min after oral dose, mg/kg: 2 1.8, 2A 1.3, 2B 1.8, 22 1.5, 22A 1.0, 22B 1.4, 32 1.7, 32C 1.3, 64 1.9
[11] = 85 min after oral dose, mg/kg: 2 1.8, 2A 1.3, 2B 1.8, 22 1.5, 22A 1.0, 22B 1.4, 32 1.7, 32C 1.3, 64 1.9
[12] = 95 min after oral dose, mg/kg: 2 1.8, 2A 1.3, 2B 1.8, 22 1.5, 22A 1.0, 22B 1.4, 32 1.7, 32C 1.3, 64 1.9
[13] = 105 min after oral dose, mg/kg: 2 1.8, 2A 1.3, 2B 1.8, 22 1.5, 22A 1.0, 22B 1.4, 32 1.7, 32C 1.3, 64 1.9
[14] = 115 min after oral dose, mg/kg: 2 1.8, 2A 1.3, 2B 1.8, 22 1.5, 22A 1.0, 22B 1.4, 32 no value, 32C 1.3, 64 1.9

| SMILES | Inhibition (%) of pressor response to angiotensin I [1, 3] [%] | Inhibition (%) of pressor response to angiotensin I [1, 4] [%] | Inhibition (%) of pressor response to angiotensin I [1, 5] [%] | Inhibition (%) of pressor response to angiotensin I [1, 6] [%] | Inhibition (%) of pressor response to angiotensin I [1, 7] [%] | Inhibition (%) of pressor response to angiotensin I [1, 8] [%] | Inhibition (%) of pressor response to angiotensin I [1, 9] [%] | Inhibition (%) of pressor response to angiotensin I [1, 10] [%] | Inhibition (%) of pressor response to angiotensin I [1, 11] [%] | Inhibition (%) of pressor response to angiotensin I [1, 12] [%] | Inhibition (%) of pressor response to angiotensin I [1, 13] [%] | Inhibition (%) of pressor response to angiotensin I [1, 14] [%] | acute toxicity, LD [2] [mg/kg] |
| --- | --- | --- | --- | --- | --- | --- | --- | --- | --- | --- | --- | --- | --- |
| C[C@H](CS)C(=O)N1C(C(=O)O)CCC1c1ccccc1O (stereo partly drawn) [Compound 2A] | 20.0 | 40.0 | 37.5 | 36.5 | 33.7 | 30.0 | 28.2 | 20.0 | 30.0 | 24.8 | 21.0 | 20.0 | – |
| C[C@H](CSC(=O)c1ccccc1)C(=O)N1CSC[C@H]1C(=O)OCOC(=O)C(C)(C)C [Compound 64, (2,2-Dimethyl-1-oxopropoxy)methyl (4R)-3-[(2S)-S-benzoyl-3-mercapto-2-methylpropanoyl]-4-thiazolidinecarboxylate] | 30.0 | 59.5 | 69.5 | 59.9 | 55.7 | 53.5 | 47.1 | 37.2 | 36.5 | 30.8 | 27.8 | 24.5 | – |
| C[C@H](CSC(=O)c1ccccc1)C(=O)N1CSC[C@H]1C(=O)O [Compound 22B, (4R)-3-[(2S)-S-benzoyl-3-mercapto-2-methylpropanoyl]-4-thiazoldinecarboxylic acid] | 45.4 | 60.7 | 60.6 | 45.4 | 45.4 | 45.4 | 42.4 | 36.4 | 30.3 | 21.2 | 21.2 | 21.2 | – |
| Cc1ccc(C(=O)SC[C@@H](C)C(=O)N2CSC[C@H]2C(=O)O)cc1 [Compound 22] | 45.2 | 60.4 | 51.4 | 59.0 | 55.0 | 50.8 | 55.0 | 53.5 | 49.4 | 46.5 | 39.8 | 31.6 | – |
| C[C@H](CSC(=O)c1ccccc1)C(=O)N1C(C(=O)O)CCC1c1ccccc1O (stereo partly drawn) [Compound 2B] | 7.9 | 36.8 | 36.8 | 36.8 | 45.7 | 31.6 | 31.6 | 31.6 | 21.1 | 21.1 | 15.8 | 15.8 | – |
| C[C@H](CS)C(=O)N1CSC[C@H]1C(=O)O [Compound 22A, (4R)-3-[(2S)-3-mercapto-2-methylpropanoyl]-4-thiazolidinecarboxylic acid] | 34.0 | 51.5 | 49.7 | 45.0 | 37.5 | 30.2 | 30.2 | 30.2 | 28.0 | 19.8 | 10.2 | 8.0 | – |
| O=C(O)[C@@H]1CSC(c2ccccc2O)N1C(=O)CCS (stereo partly drawn) [Compound 32C] | 53.3 | 62.9 | 64.7 | 63.7 | 54.0 | 49.3 | 47.7 | 38.8 | 34.0 | 30.0 | 30.0 | 31.0 | – |
| CC(=O)Oc1ccccc1C1SC[C@@H](C(=O)O)N1C(=O)CCSC(C)=O (stereo partly drawn) [Compound 32, (4R)-2-(2-Acetoxyphenyl)-3-(S-acetyl-3-mercaptopropanoyl)-4-thiazolidinecarboxylic acid] | 40.2 | 55.3 | 70.2 | 70.2 | 61.1 | 54.2 | 55.3 | 57.2 | 48.2 | 43.4 | 27.3 | – | > 500 |
| Cc1ccc(C(=O)SC[C@@H](C)C(=O)N2C(C(=O)O)CCC2c2ccccc2O)cc1 (stereo partly drawn) [Compound 2] | 39.3 | 58.1 | 64.0 | 60.0 | 73.0 | 57.2 | 55.0 | 54.5 | 42.0 | 39.5 | 42.0 | 37.0 | – |
